{"source": "paper PMC10458698", "about": "“Characterization of the interferences of systemic azole antifungal drugs with adrenal steroid biosynthesis using H295R cells and enzyme activity assays” (Current Research in Toxicology, 2023)", "key": {"[1]": {"system": "CYP11B1", "parameters": "method as in Beck et al., 2020a", "conditions": "ref Beck et al., 2020a; cited from earlier work"}, "[2]": {"molecular_target": "T1, CYP17A1 17,20-lyase (Homo sapiens, UniProt P05093)", "T1 construct": "expressed in transfected cells; host or cells: COS-1 cells, transient transfection, microsomal fraction", "T1 sequence (P05093 1-508)": "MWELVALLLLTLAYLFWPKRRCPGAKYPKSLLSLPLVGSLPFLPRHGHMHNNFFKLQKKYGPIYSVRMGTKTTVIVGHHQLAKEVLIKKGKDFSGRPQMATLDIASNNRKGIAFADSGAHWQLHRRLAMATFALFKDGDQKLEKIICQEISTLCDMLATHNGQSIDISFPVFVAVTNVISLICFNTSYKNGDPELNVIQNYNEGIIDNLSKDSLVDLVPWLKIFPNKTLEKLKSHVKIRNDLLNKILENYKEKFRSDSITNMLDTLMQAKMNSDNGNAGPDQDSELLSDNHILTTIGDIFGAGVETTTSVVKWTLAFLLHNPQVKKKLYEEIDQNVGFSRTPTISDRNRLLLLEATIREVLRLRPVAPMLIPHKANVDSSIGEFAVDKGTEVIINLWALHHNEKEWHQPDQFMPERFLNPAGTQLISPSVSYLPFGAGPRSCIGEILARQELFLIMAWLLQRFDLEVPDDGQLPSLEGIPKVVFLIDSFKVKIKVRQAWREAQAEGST", "assay": "CYP17A1 17,20-lyase activity assay, microsomes of transfected COS-1 cells", "type": "biochemical", "conditions": "for IC50: 17α-hydroxypregnenolone 500 nM, 1 h; for lower inhibitory potency against 17,20-lyase than posaconazole: relative to posaconazole", "protocol": "Microsomes were prepared from COS-1 cells transiently transfected with plasmids for either CYP17A1 and POR for CYP17A1-hydroxylase assay (human CYP17A1 was available in our own plasmid collection after cloning into pcDNA3, POR was ordered from Genescript, Piscataway, USA, clone ID OHu25584C), CYP17A1, POR and cytochrome b5 for CYP17A1 17,20-lyase assay (cytochrome b5 was from Genescript, clone ID OHu09495D), POR and CYP21A2 (Genescript, CYP21A2 clone ID OHu18602D), or 3β-HSD2 (Genescript, clone ID OHu14034D). Transfection was performed using PEI and equal amounts of required plasmids with a total DNA amount of 8 µg per transfection of 3,000,000 cells. After overnight incubation, cells were washed with prewarmed PBS before adding ice-cold PBS. Cells were collected and centrifuged at 600 × g for 4 min at 4 °C, washed with ice cold PBS and centrifuged again. The pellet was resuspended in a resuspension buffer (20 mM Tris, pH 7.5, 50 mM KCl, 2 mM MgCl2, 0.25 M sucrose). Cells were disrupted with 30 S by a glass potter (2 cm^3) as described above. The homogenate was centrifuged for 20 min at 12,000 × g and 4 °C. Microsomes were pelleted by ultracentrifugation at 100,000 × g for 1 h at 4 °C. The pellet was resuspended in reaction buffer and the protein concentration determined using the Pierce Protein BCA kit as described above.\nMicrosomes, 250 µg/mL, expressing CYP17A1, POR and cytochrome b5 were incubated in reaction buffer for 10 min with 1 mM NADPH and the azole antifungals. The reaction was started by adding 500 nM 17α-hydroxypregnenolone in a total reaction volume of 50 µL. After 1 h of incubation at 37 °C, the reaction was stopped adding 50 µL methanol. Samples were evaporated to dryness, reconstituted in 6 µL methanol, diluted 1:25 in water and the DHEA concentration was quantified using an ELISA kit (DEH3344, Demeditec, Kiel, Germany). Absorbance was measured using a BioTek Citation5 imaging reader."}, "[3]": {"molecular_target": "T2, CYP11A1 (Homo sapiens, UniProt P05108)", "T2 construct": "host or cells: V79-4 cells (Chinese hamster), transient transfection, mitochondrial fraction", "T2 sequence (P05108 40-521)": "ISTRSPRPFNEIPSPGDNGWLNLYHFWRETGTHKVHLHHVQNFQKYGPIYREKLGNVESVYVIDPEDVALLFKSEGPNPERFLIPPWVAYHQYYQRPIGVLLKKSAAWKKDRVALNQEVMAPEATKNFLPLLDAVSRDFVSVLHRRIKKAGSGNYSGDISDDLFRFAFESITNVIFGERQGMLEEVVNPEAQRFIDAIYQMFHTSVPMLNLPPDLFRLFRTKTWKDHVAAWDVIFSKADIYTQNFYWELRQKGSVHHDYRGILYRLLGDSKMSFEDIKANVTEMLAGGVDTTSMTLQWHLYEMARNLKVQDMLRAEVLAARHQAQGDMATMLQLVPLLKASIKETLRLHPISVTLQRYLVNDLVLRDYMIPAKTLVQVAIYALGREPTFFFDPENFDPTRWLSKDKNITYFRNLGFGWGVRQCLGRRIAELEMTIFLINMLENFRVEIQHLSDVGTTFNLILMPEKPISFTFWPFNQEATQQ", "parameters": "method as in Mast et al., 2013, Vanden Bossche et al., 1986", "conditions": "in words, ref Mast et al., 2013, Vanden Bossche et al., 1986; cited from earlier work"}, "[4]": {"parameters": "method as in Nguyen et al., 2020", "conditions": "ref Nguyen et al., 2020; cited from earlier work"}}}
{"compound": "C[C@@H](c1nc(-c2ccc(C#N)cc2)cs1)[C@](O)(Cn1cncn1)c1cc(F)ccc1F", "note": "[isavuconazole]", "values": [{"measurement": "IC50", "setting": "[1]", "result": 3, "unit": "µM"}, {"measurement": "IC50", "setting": "[2]; cell-free", "result": 5.71, "unit": "µM"}, {"measurement": "lower inhibitory potency against 17,20-lyase than posaconazole", "setting": "[2]", "result": 20, "unit": "times"}]}
{"compound": "CCC(C)n1ncn(-c2ccc(N3CCN(c4ccc(OCC5COC(Cn6cncn6)(c6ccc(Cl)cc6Cl)O5)cc4)CC3)cc2)c1=O", "note": "(stereo not shown) [itraconazole]", "values": [{"measurement": "CYP11A1 inhibition in earlier studies", "setting": "[3]", "result": "no substantial inhibition"}, {"measurement": "IC50", "setting": "[1]", "result": 0.44, "unit": "µM"}, {"measurement": "IC50", "setting": "[2]; cell-free", "result": 5.76, "unit": "µM"}, {"measurement": "lower inhibitory potency against 17,20-lyase than posaconazole", "setting": "[2]", "result": 20, "unit": "times"}]}
{"compound": "CC[C@@H]([C@H](C)O)n1ncn(-c2ccc(N3CCN(c4ccc(OC[C@@H]5CO[C@@](Cn6cncn6)(c6ccc(F)cc6F)C5)cc4)CC3)cc2)c1=O", "note": "[posaconazole, Posaconazole]", "values": [{"measurement": "CYP11A1 inhibition in earlier studies", "setting": "[3]", "result": "moderate CYP11A1 inhibition"}, {"measurement": "IC50", "setting": "[1]", "result": 0.06, "unit": "µM"}, {"measurement": "serum concentration with increased risk of pseudohyperaldosteronism", "setting": "[4]", "result": "> 2.5", "unit": "µg/mL"}, {"measurement": "IC50", "setting": "[2]; cell-free", "result": 0.28, "unit": "µM"}, {"measurement": "inhibition of CYP17A1 17,20-lyase", "setting": "[2]; cell-free, in words", "result": "potently inhibited"}, {"measurement": "preference for 17,20-lyase over the 17α-hydroxylase activity", "setting": "[2]; ratio of IC50 values", "result": "four-fold preference"}]}
